# Test results reported in patent EP2931723B1, “NEW BICYCLIC COMPOUNDS AND THEIR USE AS ANTIBACTERIAL AGENTS AND -LACTAMASE INHIBITORS” (Fedora Pharmaceuticals Inc., priority 2012, dated 2014).
# Tests used:
# Experiment in all cases: MIC, antibacterial and synergistic activity
# Assay type in all cases: cell-based
# A. baumanii JMI 2659 = A. baumanii JMI 2659 (Ges-14 (Cpase))
# E. coli ATCC 25922 = E. coli ATCC 25922 (Wt)
# E.coli JMI 4103 = E.coli JMI 4103 (KPC-2, Tem-1, CMY-Type)
# P. aerug JMI 2686 [1] = conditions: P. aerug JMI 2686 (KPC-2 (Cpase)); substance alone
# E. coli JMI 2692 = E. coli JMI 2692 (NDM-1, TEM-1, CTX-M-15)
# Description: (§1) In the Tables 10 - 12, compounds herein disclosed were tested in combination with various antibiotics against metallo β-lactamase producing bacteria.
# K. pneumo JMI 2693 = K. pneumo JMI 2693 (NDM-1 (Cpase))
# Description: as §1
# K. pneumo JMI 2697 = K. pneumo JMI 2697 (IMP-4 (Cpase))
# Description: as §1
# K. pneumo JMI 2673 = K. pneumo JMI 2673 (CTX-M14 (ESBL))
# Procedure, shortened: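 Compounds were evaluated together with various antibiotics to measure synergistic antibacterial activity. For each combination, the minimum inhibitory concentration of the antibiotic was recorded while the inhibitor was present at a constant 4 µg/mL.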
# P. aerug JMI 2686 [2] = conditions: P. aerug JMI 2686 (KPC-2 (Cpase))
# Procedure, shortened: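 This antibacterial synergy assay measured the minimum inhibitory concentration of antibiotics combined with the disclosed inhibitor compounds. The inhibitor was held at 4 µg/mL throughout. The aim was to see whether the added compound strengthened the antibiotic's action against the tested bacteria.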
# E. coli JMI 10768 [3] = conditions: E. coli JMI 10768 (CTX-M15 (Weak ESBL))
# Description: In the Tables 10 - 12, compounds herein disclosed were tested in combination with various antibiotics against metallo β-lactamase producing bacteria. Table 3: Synergy of the inhibitor Ex. 1 (4 µg/mL) in combination with antibiotics
# K. pneumo JMI 2699 = K. pneumo JMI 2699 (VIM-1, CTX-M3)
# Procedure, shortened: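 MBL strains; antibiotic + inhibitor 4 µg/mL; MIC.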
# E. cloacae JMI 36 = E. cloacae JMI 36 (P99)
# K. pneumo JMI 2681 = K. pneumo JMI 2681 (Oxa-48 (Cpase))
# E. coli JMI 10767 = E. coli JMI 10767 (Wt)
# K.pneumo JMI 4109 = K.pneumo JMI 4109 (SHV-1, SHV-12); substance alone
# E. coli JMI 10770 = conditions: Escherichia coli, JMI10770; E. coli JMI 10770 (CTX-M15 (Hyper ESBL)); substance alone
# K. pneumo JMI 4088 = K. pneumo JMI 4088 (KPC-3 (Cpase)); substance alone
# E. coli JMI 10768 [4] = conditions: E. coli JMI 10768 (CTX-M15 (Weak ESBL)); Meropenem + inhibitor at 4 µg/mL
# K. pneumo JMI 4106 = K. pneumo JMI 4106 (KPC-3, TEM-1, SHV-12, SHV-141)
# P. aerug JMI 149 = P. aerug JMI 149 (Bla+++D+)
# K. pneumo JMI 2674 = K. pneumo JMI 2674 (CTX-M15 (ESBL)); substance alone
# E. coli JMI 11103 = tested on: E. coli JMI 11103
# [5] = Aztreonam + inhibitor at 4 µg/mL
# [6] = Ceftazidime + inhibitor at 4 µg/mL
# [7] = Meropenem + inhibitor at 4 µg/mL
smiles,measurement,setting,value
"NCCONC(=O)[C@@H]1CC[C@@H]2CN1C(=O)N2OS(=O)(=O)O [Ex. 3, (2S,5R)-N-(2-Aminoethoxy)-7-oxo-6-(sulfooxy)-1,6-diazabicyclo[3.2.1]octane-2-carboxamide]",MIC Aztreonam + inhibitor,A. baumanii JMI 2659; [5],>4 µg/mL
same,MIC Ceftazidime + inhibitor,A. baumanii JMI 2659; [6],>16 µg/mL
same,MIC Meropenem + inhibitor,A. baumanii JMI 2659; [7],2 µg/mL
same,MIC,"A. baumanii JMI 2659; Acinetobacter baumannii, JMI2659, substance alone, read-out: MIC",> 16 µg/mL
same,MIC Aztreonam + inhibitor,E. coli ATCC 25922; [5],≤0.062 µg/mL
same,MIC Ceftazidime + inhibitor,E. coli ATCC 25922; [6],≤0.25 µg/mL
same,MIC Meropenem + inhibitor,E. coli ATCC 25922; [7],≤0.0312 µg/mL
same,MIC,"E. coli ATCC 25922; Escherichia coli, ATCC25922, substance alone",2 µg/mL
same,MIC Aztreonam + inhibitor,E.coli JMI 4103; [5],≤0.062 µg/mL
same,MIC Ceftazidime + inhibitor,E.coli JMI 4103; [6],≤0.25 µg/mL
same,MIC Meropenem + inhibitor,E.coli JMI 4103; [7],≤0.0312 µg/mL
same,MIC,"E.coli JMI 4103; Escherichia coli, JMI4103, substance alone",4 µg/mL
same,MIC,P. aerug JMI 2686 [1],> 16 µg/mL
same,MIC Aztreonam + inhibitor,E. coli JMI 2692; [5],≤0.062 µg/mL
same,MIC Ceftazidime + inhibitor,E. coli JMI 2692; [6],≤0.25 µg/mL
same,MIC Meropenem + inhibitor,E. coli JMI 2692; [7],≤0.0312 µg/mL
same,MIC,"E. coli JMI 2692; Escherichia coli, JMI2692, substance alone, read-out: MIC",2 µg/mL
same,MIC Aztreonam + inhibitor,K. pneumo JMI 2693; [5],0.25 µg/mL
same,MIC Ceftazidime + inhibitor,K. pneumo JMI 2693; [6],≤0.25 µg/mL
same,MIC Meropenem + inhibitor,K. pneumo JMI 2693; [7],≤0.0312 µg/mL
same,MIC,K. pneumo JMI 2693; substance alone,8 µg/mL
same,MIC Aztreonam + inhibitor,K. pneumo JMI 2697; [5],0.25 µg/mL
same,MIC Ceftazidime + inhibitor,K. pneumo JMI 2697; [6],0.5 µg/mL
same,MIC Meropenem + inhibitor,K. pneumo JMI 2697; [7],0.25 µg/mL
same,MIC,K. pneumo JMI 2697; substance alone,8 µg/mL
same,MIC Aztreonam + inhibitor,K. pneumo JMI 2673; [5],0.125 µg/mL
same,MIC Ceftazidime + inhibitor,K. pneumo JMI 2673; [6],≤0.25 µg/mL
same,MIC Meropenem + inhibitor,K. pneumo JMI 2673; [7],≤0.0312 µg/mL
same,MIC Aztreonam + inhibitor,P. aerug JMI 2686 [2]; [5],>4 µg/mL
same,MIC Ceftazidime + inhibitor,P. aerug JMI 2686 [2]; [6],16 µg/mL
same,MIC Meropenem + inhibitor,P. aerug JMI 2686 [2]; [7],>2 µg/mL
same,MIC Aztreonam + inhibitor,E. coli JMI 10768 [3]; [5],≤0.062 µg/mL
same,MIC Ceftazidime + inhibitor,E. coli JMI 10768 [3]; [6],≤0.25 µg/mL
same,MIC,"E. coli JMI 10768 [3]; Escherichia coli, JMI10768, substance alone",4 µg/mL
same,MIC Aztreonam + inhibitor,K. pneumo JMI 2699; [5],≤0.062 µg/mL
same,MIC Ceftazidime + inhibitor,K. pneumo JMI 2699; [6],≤0.25 µg/mL
same,MIC Meropenem + inhibitor,K. pneumo JMI 2699; [7],≤0.0312 µg/mL
same,MIC,"K. pneumo JMI 2699; substance alone, read-out: MIC",4 µg/mL
same,MIC Aztreonam + inhibitor,E. cloacae JMI 36; [5],>4 µg/mL
same,MIC Ceftazidime + inhibitor,E. cloacae JMI 36; [6],0.5 µg/mL
same,MIC Meropenem + inhibitor,E. cloacae JMI 36; [7],0.062 µg/mL
same,MIC,"E. cloacae JMI 36; Enterobacter cloacae, JMI36, substance alone, read-out: MIC",> 16 µg/mL
same,MIC Aztreonam + inhibitor,K. pneumo JMI 2681; [5],1 µg/mL
same,MIC Ceftazidime + inhibitor,K. pneumo JMI 2681; [6],≤0.25 µg/mL
same,MIC Meropenem + inhibitor,K. pneumo JMI 2681; [7],0.5 µg/mL
same,MIC,"K. pneumo JMI 2681; substance alone, read-out: MIC",> 16 µg/mL
same,MIC Meropenem + inhibitor,E. coli JMI 10767; [7],≤0.0312 µg/mL
same,MIC,"E. coli JMI 10767; Escherichia coli, JMI10767, substance alone",2 µg/mL
same,MIC,K.pneumo JMI 4109,2 µg/mL
same,MIC,E. coli JMI 10770,> 16 µg/mL
same,MIC,K. pneumo JMI 4088,2 µg/mL
same,MIC Meropenem + inhibitor,E. coli JMI 10768 [4],0.062 µg/mL
same,MIC Aztreonam + inhibitor,K. pneumo JMI 4106; [5],≤0.062 µg/mL
same,MIC Ceftazidime + inhibitor,K. pneumo JMI 4106; [6],≤0.25 µg/mL
same,MIC Meropenem + inhibitor,K. pneumo JMI 4106; [7],≤0.0312 µg/mL
same,MIC,"K. pneumo JMI 4106; substance alone, read-out: MIC",2 µg/mL
same,MIC Aztreonam + inhibitor,P. aerug JMI 149; [5],>4 µg/mL
same,MIC Ceftazidime + inhibitor,P. aerug JMI 149; [6],4 µg/mL
same,MIC Meropenem + inhibitor,P. aerug JMI 149; [7],0.25 µg/mL
same,MIC,"P. aerug JMI 149; substance alone, read-out: MIC",> 16 µg/mL
same,MIC,K. pneumo JMI 2674,> 16 µg/mL
same,MIC Aztreonam + inhibitor,"E. coli JMI 11103; E. coli JMI 11103 (CTX-M15 (Intermediate ESBL)), Aztreonam + inhibitor at 4 µg/mL",0.5 µg/mL
same,MIC Ceftazidime + inhibitor,"E. coli JMI 11103; E. coli JMI 11103 (CTX-M15 (Intermediate ESBL)), Ceftazidime + inhibitor at 4 µg/mL",0.5 µg/mL
same,MIC Meropenem + inhibitor,"E. coli JMI 11103; E. coli JMI 11103 (CTX-M15 (Intermediate ESBL)), Meropenem + inhibitor at 4 µg/mL",0.062 µg/mL
same,MIC,"E. coli JMI 11103; Escherichia coli, JMI11103, E. coli JMI 11103 (CTX-M15 (Intermediate ESBL)), substance alone",4 µg/mL
